{"source": "patent US20230148152A1", "about": "“METHOD OF SYNTHESIZING SINGLE-STRANDED NUCLEOTIDE SEQUENCE, BLOCKED NUCLEOSIDE TRIPHOSPHATES AND RELATED METHODS” (Agency for Science, Technology and Research, priority 2019, published 2023)"}
{"biological_target": "T1, recombinant terminal deoxynucleotidyl transferase (TdT) (Bos taurus, UniProt P06526)", "T1 construct": "purchased Promega", "T1 sequence (P06526 whole entry)": "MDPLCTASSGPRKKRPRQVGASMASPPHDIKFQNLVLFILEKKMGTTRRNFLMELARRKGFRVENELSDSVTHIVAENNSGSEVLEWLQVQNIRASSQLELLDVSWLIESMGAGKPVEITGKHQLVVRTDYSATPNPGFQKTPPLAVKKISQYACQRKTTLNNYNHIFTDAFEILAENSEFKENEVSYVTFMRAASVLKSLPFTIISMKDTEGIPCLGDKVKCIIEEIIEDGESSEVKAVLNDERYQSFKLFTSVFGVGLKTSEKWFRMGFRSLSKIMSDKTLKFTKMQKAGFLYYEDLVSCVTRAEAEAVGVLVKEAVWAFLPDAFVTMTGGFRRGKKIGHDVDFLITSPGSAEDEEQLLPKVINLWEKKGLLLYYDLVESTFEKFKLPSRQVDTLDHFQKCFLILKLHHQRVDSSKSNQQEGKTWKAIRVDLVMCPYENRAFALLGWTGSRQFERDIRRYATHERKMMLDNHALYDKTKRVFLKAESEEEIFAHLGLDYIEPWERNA", "assay": "Tailing experiment design, screening of RT-dTTPs with rTdT as enzyme", "format": "biochemical", "conditions": "37° C. for 60 min, PAGE, FIG. 6A, FIG. 7", "source_text": "(§1) In this experimental design (FIG. 5), single-stranded deoxyoligonucleotides (20 nt) 102 with FAM tagged on 5′ end reacts with RT-dNTP 104 using TdT as the catalyst, and produce 21-mer (102a and 102b).\n(§2) As the incorporation is not 100%, the unreacted FAM tagged oligo will further react with natural deoxynucleotidyl triphosphates (dATP) 106, and produces tailing products 102c. The 21-mer (102a and 102b) and tailing products (102c) can be separated by polyacrylamide gel electrophoresis.\n(§3) 1. Set up the following reactions\n(§4) 2. Incubate the solution at 37° C. for 60 min\n(§5) 3. Purification • Desalt with Zymo column Oligo Clean & Concentrator D4061 (following manufacturer's protocol) to obtain 15 μL aqueous solution and concentrate on speedvac to dry\n(§6) 4. Set up the following reactions\n(§7) 5. Incubate at 37° C. for 60 min\n(§8) 6. Stop the reaction by heating at 70° C. for 10 min\n(§9) 7. Purification • Desalt with Zymo column Oligo Clean & Concentrator D4061 (following manufacturer's protocol) to obtain 15 μL aqueous solution and concentrate on speedvac to dry\n(§10) 8. Denaturing PAGE (20% urea PAGE, 200V for 90 min) • Preheat 1×TBE buffer at 65° C. • Set up gel in gel tank, flush wells, pre-run 20% urea polyacrylamide gel at 200V for 30 min • Prepare loading sample (dry sample+2.5 μL 1×TBE, 0.5 μL loading buffer), preheat sample at 95° C. for 10 min • Flush each well 3 times to remove urea in wells, load sample, and run for 90 min • Image under UV light without post staining. If post staining is needed, SYBR Gold is used.\n(§11) In evaluating the RT-dTTP(s)'s incorporation and termination activities using tailing experiment design, two types of TdTs are used for the evaluation studies: recombinant TdT (rTdT) purchased from Promega and engineered TdT (eTdT)."}
{"compound": "Cc1cn([C@H]2C[C@H](OC(=O)OCCSSC(C)(C)C)[C@@H](COP(=O)(O)OP(=O)(O)OP(=O)(O)O)O2)c(=O)[nH]c1=O", "note": "[DT-dTTP, disulfide carbonate (DT)-dTTP]", "incorporation into the original FAM-20-mer (21-mer product)": "particularly good yield of 21-mer"}
{"compound": "Cc1cn([C@H]2C[C@H](OCOCc3ccc([N+](=O)[O-])cc3)[C@@H](COP(=O)(O)OP(=O)(O)OP(=O)(O)O)O2)c(=O)[nH]c1=O", "note": "[PNBA-dTTP, 4-nitrobenzyloxy-methyl (PNBA)-dTTP]", "incorporation into the original FAM-20-mer (21-mer product)": "gave 21-mer products"}
{"compound": "Cc1cn([C@H]2C[C@H](OCOCC[Si](C)(C)C)[C@@H](COP(=O)(O)OP(=O)(O)OP(=O)(O)O)O2)c(=O)[nH]c1=O", "note": "[SEM-dTTP, 2-(trimethylsilyl)ethoxymethyl (SEM)-dTTP]", "incorporation into the original FAM-20-mer (21-mer product)": "gave 21-mer products"}
{"compound": "dithianemethyl acetal (DMA)-dTTP [DMA-dTTP]", "incorporation into the original FAM-20-mer (21-mer product)": "gave 21-mer products"}
{"system": "terminal deoxynucleotidyl transferase (TdT)", "assay": "Evaluation of reversibility of reversible terminators (incorporation, capping, deprotection, elongation)", "format": "biochemical", "conditions": "elongation by TdT after deprotection of CE or DT", "source_text": "Once RT-dTTP is incorporated to the single-stranded oligonucleotide, the reversible terminator needs to be removed to enable the next base incorporation. […] The reaction will produce a mixture of products which includes the reversibly terminated 21-mer (202a and 202b) and unreacted original 20-mer 202. Then azido-ddGTP 206 will be added to 3′-termini of the unreacted 20-mer 202. As 3′ termini become a dideoxynucleotide 202c, the azido oligonucleotide will not be able to further react with any dTTP via TdT. Then reversibly terminator will be removed in certain conditions, and further incorporated with natural dTTP 208 via TdT.\n1. Set Up the Following Reactions\nas §4\n3. Purification • Desalt with Zymo column Oligo Clean & Concentrator D4061 (following protocol) to obtain 15 μL aqueous solution and concentrate on speedvac to dry\n4. Add 85 μL of 30% NH4OH and heat at 80° C. for 1 h\n5. Purification • Desalt with Zymo column Oligo Clean & Concentrator D4061 (following protocol) to obtain 15 μL aqueous solution and concentrate on speedvac to dry Elongation of Nucleotide with Natural dATP:\n6. Set up the following reactions\n7. Incubate at 37° C. for 60 min\n8. Stop the reaction by heating at 70° C. for 10 min\n9. Purification • Desalt with Zymo column Oligo Clean & Concentrator D4061 (following protocol) to obtain 15 μL aqueous solution and concentrate on speedvac to dry […]"}
{"compound": "Cc1cn([C@H]2C[C@H](OCCC#N)[C@@H](COP(=O)(O)OP(=O)(O)OP(=O)(O)O)O2)c(=O)[nH]c1=O", "note": "[CE-dTTP, 2-cyanoethyl ether (CE)-dTTP]", "further incorporation of natural nucleotide after deprotection": "able to incorporate with natural dTTP"}
{"compound": "Cc1cn([C@H]2C[C@H](OC(=O)OCCSSC(C)(C)C)[C@@H](COP(=O)(O)OP(=O)(O)OP(=O)(O)O)O2)c(=O)[nH]c1=O", "note": "[DT-dTTP, disulfide carbonate (DT)-dTTP]", "further incorporation of natural nucleotide after deprotection": "able to incorporate with natural dTTP"}
{"biological_target": "T2, rTdT (Bos taurus, UniProt P06526)", "T2 construct": "purchased Promega", "T2 sequence (P06526 whole entry)": "as above", "assay": "Laddering experiment design (dATP / RT-dTTP ratios)", "format": "biochemical", "conditions": "laddering experiments, FIG. 11; compared with Az-dTTP", "experimental": "The laddering experiment design is to differentiate the ratio between natural dNTP and RT-dNTP.\nas §3\n2. Incubate at 37° C. for 60 min\n3. Stop the reaction by heating at 70° C. for 10 min\n4. Purification • Desalt with Zymo column Oligo Clean & Concentrator D4061 (following manufacturer's protocol) to obtain 15 μL aqueous solution and concentrate on speedvac to dry\nas §10, with “5.” for “8.”"}
{"compound": "Cc1cn([C@H]2C[C@H](OCCC#N)[C@@H](COP(=O)(O)OP(=O)(O)OP(=O)(O)O)O2)c(=O)[nH]c1=O", "note": "[CE-dTTP, 2-cyanoethyl ether (CE)-dTTP]", "termination of the reaction": "can terminate the reaction as well as Az-dTTP"}
{"compound": "Cc1cn([C@H]2C[C@H](OC(=O)OCCSSC(C)(C)C)[C@@H](COP(=O)(O)OP(=O)(O)OP(=O)(O)O)O2)c(=O)[nH]c1=O", "note": "[DT-dTTP, disulfide carbonate (DT)-dTTP]", "termination of the reaction": "can terminate the reaction as well as Az-dTTP"}
{"system": "template-independent terminal deoxynucleotidyl transferase (TdT) enzyme", "assay": "Single base addition to single-stranded nucleotide sequence catalysed by TdT (overall conclusion)", "format": "biochemical", "conditions": "summary of tailing experiments", "source_text": "(§12) A series of screening experiments were designed and conducted to test the recognition of the reversible terminators nucleoside triphosphate reversible terminators designed in accordance with various embodiments disclosed herein by template-independent polymerase and the efficiency of the incorporation of such reversible terminators into the nucleic acid chain. In these experiments, the template-independent polymerase used is recombinant or engineered template-independent terminal deoxynucleotidyl transferase (TdT) enzyme and the initiator used is a single-stranded oligonucleotide sequence."}
{"compound": "C=CCOCO[C@H]1C[C@H](n2cc(C)c(=O)[nH]c2=O)O[C@@H]1COP(=O)(O)OP(=O)(O)OP(=O)(O)O", "note": "[AL-dTTP, (allyloxy)methyl (ALM)-dTTP]", "termination of further base incorporation": "terminate further base incorporation"}
{"compound": "Cc1cn([C@H]2C[C@H](OC(=O)OCCSSC(C)(C)C)[C@@H](COP(=O)(O)OP(=O)(O)OP(=O)(O)O)O2)c(=O)[nH]c1=O", "note": "[DT-dTTP, disulfide carbonate (DT)-dTTP]", "termination of further base incorporation": "terminate further base incorporation"}
{"compound": "Cc1cn([C@H]2C[C@H](OCOCc3ccc([N+](=O)[O-])cc3)[C@@H](COP(=O)(O)OP(=O)(O)OP(=O)(O)O)O2)c(=O)[nH]c1=O", "note": "[PNBA-dTTP, 4-nitrobenzyloxy-methyl (PNBA)-dTTP]", "termination of further base incorporation": "terminate further base incorporation"}
{"compound": "Cc1cn([C@H]2C[C@H](OCOCC[Si](C)(C)C)[C@@H](COP(=O)(O)OP(=O)(O)OP(=O)(O)O)O2)c(=O)[nH]c1=O", "note": "[SEM-dTTP, 2-(trimethylsilyl)ethoxymethyl (SEM)-dTTP]", "termination of further base incorporation": "terminate further base incorporation"}
{"compound": "dithianemethyl acetal (DMA)-dTTP [DMA-dTTP]", "termination of further base incorporation": "terminate further base incorporation"}
{"system": "template-independent terminal deoxynucleotidyl transferase (TdT) enzyme", "assay": "Single base addition to single-stranded nucleotide sequence catalysed by TdT (overall conclusion)", "format": "biochemical", "conditions": "summary, recombinant or engineered TdT", "source_text": "as §12"}
{"compound": "C=CCOCO[C@H]1C[C@H](n2cc(C)c(=O)[nH]c2=O)O[C@@H]1COP(=O)(O)OP(=O)(O)OP(=O)(O)O", "note": "[AL-dTTP, (allyloxy)methyl (ALM)-dTTP]", "incorporation in single stranded oligonucleotide via the catalysis of TdT": "successfully incorporated"}
{"compound": "Cc1cn([C@H]2C[C@H](OC(=O)OCCSSC(C)(C)C)[C@@H](COP(=O)(O)OP(=O)(O)OP(=O)(O)O)O2)c(=O)[nH]c1=O", "note": "[DT-dTTP, disulfide carbonate (DT)-dTTP]", "incorporation in single stranded oligonucleotide via the catalysis of TdT": "successfully incorporated"}
{"compound": "Cc1cn([C@H]2C[C@H](OCOCc3ccc([N+](=O)[O-])cc3)[C@@H](COP(=O)(O)OP(=O)(O)OP(=O)(O)O)O2)c(=O)[nH]c1=O", "note": "[PNBA-dTTP, 4-nitrobenzyloxy-methyl (PNBA)-dTTP]", "incorporation in single stranded oligonucleotide via the catalysis of TdT": "successfully incorporated"}
{"compound": "Cc1cn([C@H]2C[C@H](OCOCC[Si](C)(C)C)[C@@H](COP(=O)(O)OP(=O)(O)OP(=O)(O)O)O2)c(=O)[nH]c1=O", "note": "[SEM-dTTP, 2-(trimethylsilyl)ethoxymethyl (SEM)-dTTP]", "incorporation in single stranded oligonucleotide via the catalysis of TdT": "successfully incorporated"}
{"compound": "dithianemethyl acetal (DMA)-dTTP [DMA-dTTP]", "incorporation in single stranded oligonucleotide via the catalysis of TdT": "successfully incorporated"}
{"system": "engineered terminal deoxynucleotidyl transferase (TdT)", "assay": "Tailing experiment design, screening of RT-dTTPs with eTdT as enzyme", "format": "biochemical", "conditions": "catalytic activity of rTdT compared with eTdT; FIG. 10", "source_text": "as §1, §2, §3, §4, §5, §6, §7, §8, §9, §10, §11"}
{"compound": "Cc1cn(C2CC(OCN=[N+]=[N-])C(COP(=O)(O)OP(=O)(O)OP(=O)(O)O)O2)c(=O)[nH]c1=O", "note": "(stereo not shown) [Az-dTTP, reference compound]", "incorporation yield, eTdT compared with rTdT": "much high incorporation yield than rTdT"}
{"compound": "Cc1cn([C@H]2C[C@H](OCCC#N)[C@@H](COP(=O)(O)OP(=O)(O)OP(=O)(O)O)O2)c(=O)[nH]c1=O", "note": "[CE-dTTP, 2-cyanoethyl ether (CE)-dTTP]", "incorporation yield, eTdT compared with rTdT": "much high incorporation yield than rTdT"}
{"system": "engineered terminal deoxynucleotidyl transferase (TdT)", "assay": "Tailing experiment design, screening of RT-dTTPs with eTdT as enzyme", "format": "biochemical", "conditions": "eTdT as enzyme; PAGE, FIG. 8A and FIG. 8B", "source_text": "as §1, §2, §3, §4, §5, §6, §7, §8, §9, §10, §11"}
{"compound": "C=CCOCO[C@H]1C[C@H](n2cc(C)c(=O)[nH]c2=O)O[C@@H]1COP(=O)(O)OP(=O)(O)OP(=O)(O)O", "note": "[AL-dTTP, (allyloxy)methyl (ALM)-dTTP]", "incorporation into the original FAM-20-mer (21-mer product)": "gave 21-mer products"}
{"compound": "Cc1cn([C@H]2C[C@H](OC(=O)OCCSSC(C)(C)C)[C@@H](COP(=O)(O)OP(=O)(O)OP(=O)(O)O)O2)c(=O)[nH]c1=O", "note": "[DT-dTTP, disulfide carbonate (DT)-dTTP]", "incorporation into the original FAM-20-mer (21-mer product)": "gave 21-mer products"}
{"compound": "Cc1cn([C@H]2C[C@H](OCOCc3ccc([N+](=O)[O-])cc3)[C@@H](COP(=O)(O)OP(=O)(O)OP(=O)(O)O)O2)c(=O)[nH]c1=O", "note": "[PNBA-dTTP, 4-nitrobenzyloxy-methyl (PNBA)-dTTP]", "incorporation into the original FAM-20-mer (21-mer product)": "gave 21-mer products"}
{"compound": "Cc1cn([C@H]2C[C@H](OCOCC[Si](C)(C)C)[C@@H](COP(=O)(O)OP(=O)(O)OP(=O)(O)O)O2)c(=O)[nH]c1=O", "note": "[SEM-dTTP, 2-(trimethylsilyl)ethoxymethyl (SEM)-dTTP]", "incorporation into the original FAM-20-mer (21-mer product)": "gave 21-mer products"}
{"compound": "dithianemethyl acetal (DMA)-dTTP [DMA-dTTP]", "incorporation into the original FAM-20-mer (21-mer product)": "gave 21-mer products"}
